Test results as given in patent publication EP0981526B1, “NOVEL ANTIDIABETIC COMPOUNDS HAVING HYPOLIPIDAEMIC, ANTIHYPERTENSIVE PROPERTIES, PROCESS FOR THEIR PREPARATION AND PHARMACEUTICAL COMPOSITIONS CONTAINING THEM” (Dr. Reddy's Laboratories Ltd., priority 1997, dated 1997).

Test system: C57BL/KsJ-db/db mice
Assay: Blood sugar and triglycerides lowering activity in db/db mice (in vivo)
Conditions: for Reduction in Blood Glucose Level (%) / Triglyceride Lowering (%): oral gavage daily, male db/db mice; for Reduction in Blood Glucose Level (%): plasma glucose; for Triglyceride Lowering (%): plasma triglyceride
From the text: Mutation in colonies of laboratory animals and different sensitivities to dietary regimens have made the development of animal models with non-insulin dependent diabetes associated with obesity and insulin resistance possible. Genetic models such as db/db and ob/ob (See Diabetes. (1982) 31(1): 1-6) in mice and fa/fa and zucker rats have been developed by the various laboratories for understanding the pathophysiology of disease and testing the efficacy of new antidiabetic compounds (Diabetes, (1983)32: 830-838; Annu. Rep. Sankyo Res. Lab. (1994). 46: 1-57). The homozygous animals, C57 BL/KsJ-db/db mice developed by Jackson Laboratory, US, are obese, hyperglycemic, hyperinsulinemic and insulin resistant (J. Clin. Invest., (1990) 85: 962-967), whereas heterozygous are lean and normoglycemic. In db/db model mouse progressively develops insulinopenia with age, a feature commonly observed in late stages of human type II diabetes when blood sugar levels are insufficiently controlled. The state of pancreas and its course vary according to the models. Since this model resembles that of type II diabetes mellitus, the compounds of the present invention were tested for blood sugar and triglycerides lowering activities.
Male C57BL/KsJ-db/db mice of 8 to 14 weeks age, having body weight range of 35 to 60 grams, procured from the Jackson Laboratory, USA, were used in the experiment. The mice were provided with standard feed (National Institute of Nutrition, Hyderabad, India) and acidified water, ad libitum. The animals having more than 300 mg/dl blood sugar were used for testing. The number of animals in each group was 4.
The random blood sugar ad triglyceride levels were measured by collecting blood (100 µl) through orbital sinus, using heparinized capillary in tubes containing EDTA which was centrifuged to obtain plasma. The plasma glucose and triglyceride levels were measured through spectrometrically, by glucose oxidase and glycerol-3-PO4 oxidase/peroxidase enzyme (Dr. Reddy's Lab. Diagnostic Division Kits, Hyderabad, India) methods respectively. On 6th day the blood samples were collected one hour after administration of test compounds/vehicle for assessing the biological activity.
Test compounds were suspended on 0.25 % carboxymethyl cellulose and administered to test group at a dose of 30 mg to 200 mg/kg through oral gavage daily for 6 to 9 days. The control group received vehicle (dose 10 ml/kg).
The blood sugar and triglycerides lowering activities of the test compound was calculated according to the formula: Blood sugar / triglycerides lowering activity (%) = 1 -(DT/DC)/(TC/ZC)X 100 [formula] • ZC = Zero day control group value • DC = Zero day treated group value • TC = Control group value on test day • DT = Treated group value on the test day

[1] = dose 200 mg/kg, treated for nine days

| Structure (SMILES) | Reduction in Blood Glucose Level (%) (dose 30 mg/kg) | Reduction in Blood Glucose Level (%) (dose 100 mg/kg) | Triglyceride Lowering (%) (dose 100 mg/kg) | Triglyceride Lowering (%) (dose 30 mg/kg) | further results |
| --- | --- | --- | --- | --- | --- |
| O=C1NC(=O)C(=Cc2ccc(OC3CCN(C(=O)OCc4ccccc4)CC3)cc2)S1 [Example 1, 5-[4-[1(Benzyloxycarbonyl)piperidin-4-yloxy]phenylmethylene]thiazolidine-2,4-dione] | 47 | 59 | 29 | – | Reduction in Blood Glucose Level (%) [1]: 62%; Triglyceride Lowering (%) [1]: 70% |
| O=C1NC(=O)C(=Cc2ccc(OCC3CCN(C(=O)OCc4ccccc4)CC3)cc2)S1 [Example 3, 5-[4-[1-(Benzyloxycarbonyl)piperidin-4-ylmethoxy]phenylmethylene] thiazolidine-2,4-dione] | – | 35 | 56 | – | – |
| O=C1NC(=O)C(=Cc2ccc(OC[C@@H]3CCCN3C(=O)OCc3ccccc3)cc2)S1 [Example 5, 5-[4-[1-(Benzyloxycarbonyl)-(2S)-pyrrolidin-2-ylmethoxy]phenylmethylene]thiazolidine-2,4-dione] | 30 | – | – | 5 | – |
| O=C1NC(=O)C(=Cc2ccc(OC3CCN(C(=O)NCc4ccccc4)CC3)cc2)S1 [Example 10, 5-[4-[1-(Benzylaminocarbonyl)piperidin-4-yloxy]phenylmethylene]thiazolidine-2,4-dione] | 37 | – | – | 6 | – |
| Cc1c(C)c2c(c(C)c1O)CCC(C)(COc1ccc(CC3SC(=O)NC3=O)cc1)O2 (stereo not drawn) [Troglitazone, reference compound] | – | – | – | – | reduction in random blood sugar level (100 mg/kg, daily dose, on 6th day, standard drug, db/db mice): 28% |
